Measurements as given in PMC7377239, “Cardiovascular Effects of Polychlorinated Biphenyls and Their Major Metabolites” (Environmental Health Perspectives, 2020).
Like-named read-outs stand apart in the source and are kept apart here.

Tested on: iCell cardiomyocytes (human iPSC-derived cardiomyocytes)
Experiment: Intracellular Ca2+ flux / beating parameters in iCell cardiomyocytes (FLIPR tetra), 90 min or 24 h
Format: cell-based
Details: Homo sapiens, Cardiomyocyte, 0.00 µM = 100.00; for activity at 0.1 µM: 0.10 µM
Description: Details on cardiomyocyte cell culture are described in detail elsewhere ([Grimm et al. 2015b]; [Sirenko et al. 2013a]). Briefly, tissue-culture treated 384 well plates were gelatinized with 25μL per well of 0.1% (w/v) gelatin in water for 2 h at 37°C and 5% CO2 . Individual vials of cells were thawed for 4 min in a water bath maintained at 37°C. Thawed cells were resuspended in 10ml plating medium containing 1:500 (vol/vol) penicillin/streptomycin solution at room temperature (RT). Live cell counts for each cell suspension were determined by trypan blue staining and cells were further diluted to provide final cell densities of 2×10^5 viable cells/ml. Thus, 5,000 cells suspended in 25μL media were transferred per well after the gelatin solution had been discarded. Cell culture plates were rested for 30 min at RT before they were incubated for 48 h at 37°C and 5% CO2 . Then, a media exchange with 30μL of fresh maintenance medium containing 1:500 (vol/vol) penicillin/streptomycin solution was performed, and cell media were subsequently changed every 48 h for 12 d. On the experiment day, the medium was completely exchanged with either 25μL (for Ca^2+ flux assay) or 40μL (for imaging) of fresh medium.
Responses of iCell®-cardiomyocytes to drugs and chemicals were evaluated using intracellular Ca^2+ flux measurements ([Grimm et al. 2015b]; [Sirenko et al. 2013b]). For experiments, 20 mM stock solutions of PCBs and PCB metabolites were prepared in DMSO ( 200× ). Chemical working solutions ( 5× ) were prepared using cardiomyocyte maintenance medium and contained 2.5% (vol/vol) DMSO. These chemical master plates were prepared to include all chemicals in concentration–response (0.05, 0.5, 5, 50, and 500μM ). Negative controls included media-only and vehicle control (i.e., 0.5% vol/vol DMSO in cell culture media) wells. Positive assay controls were consistent with previously published reports ([Grimm et al. 2018]) and included TAB ( 50μM ) as a cytotoxic control, and isoproterenol ( 0.1–10μM ), propranolol ( 0.1–5 μM ), cisapride ( 0.01–1μM ), and doxorubicin ( 0.1–5μM ) as chemicals associated with specific effects on beating and ion flux. Each test chemical was screened in triplicate for each concentration.
Experiments started with the addition of 25μL of prewarmed 2× concentrated calcium dye reagent to sample wells containing 25μL maintenance media. Microplates were then acclimated for 2 h at 37°C. Following equilibration, cardiomyocyte sample wells were treated simultaneously by the addition of 12.5μL of prewarmed 5× chemical solution to iCell®-cardiomyocytes using the automated liquid handler in the FLIPR tetra (Molecular Devices). Treated cell cultures were incubated for either 90 min or 24 h. After the conclusion of the treatment period, the Ca^2+ flux was measured for 100 s at a frequency of 8 Hz using the integrated fluorescence plate reader in the FLIPR tetra (Molecular Devices) using an emission wavelength range of λemission=515–575 nm ( λexcitation=470–495 nm ). Additional instrument settings included exposure time per read of 0.05s, a gain of 2000, an excitation intensity of 30%, and an internal temperature of 37°C.
Ca^2+ flux data were processed in R studio (version 1.0.136, with R version 3.3.2; R Development Core Team) as described elsewhere ([Blanchette et al. 2019]; [Burnett et al. 2019]). Calculated quantitative metrics included the means and coefficients of variation (CV) of the peak height, which can be indicative of cytotoxicity, inhibition, or stimulation of beating. Means of peak frequency, an indicator of positive or negative […], and CV of peak spacing, an indicator of irregular beating, were also derived from Ca^2+ flux traces. Finally, the mean ratio of the decay over rise time was calculated. Increases in the decay/rise time ratio are reflective of delayed repolarization and are a measure for QT prolongation. […]

[1] = 1.5 h, read-out: cm.amp.avg.90min
[2] = 1.5 h, read-out: cm.amp.cv.90min
[3] = 1.5 h, read-out: cm.decay.rise.90min
[4] = 1.5 h, read-out: cm.spacing.cv.90min
[5] = 24 h, read-out: cm.amp.avg.24hrs
[6] = 24 h, read-out: cm.amp.cv.24hrs
[7] = 24 h, read-out: cm.decay.rise.24hrs
[8] = 24 h, read-out: cm.spacing.cv.24hrs

Oc1ccccc1-c1ccc(Cl)cc1 [2'-OH PCB3]
activity at 0.01 µM [1]: 95.7% | activity at 0.01 µM [2]: 112% | activity at 0.01 µM (1.5 h, read-out: cm.bpm.90min): 102% | activity at 0.01 µM [3]: 98.2% | activity at 0.01 µM [4]: 143% | activity at 0.1 µM [1]: 105% | activity at 0.1 µM [2]: 96.5% | activity at 0.1 µM (1.5 h, read-out: cm.bpm.90min): 102% | activity at 0.1 µM [3]: 98.7% | activity at 0.1 µM [4]: 110% | activity at 1 µM [1]: 102% | activity at 1 µM [2]: 116% | activity at 1 µM (1.5 h, read-out: cm.bpm.90min): 104% | activity at 1 µM [3]: 97.6% | activity at 1 µM [4]: 106% | activity at 10 µM [1]: 0% | activity at 10 µM [2]: 0% | activity at 10 µM (1.5 h, read-out: cm.bpm.90min): 0% | activity at 10 µM [3]: 0% | activity at 10 µM [4]: 0% | activity at 100 µM [1]: 0% | activity at 100 µM [2]: 0% | activity at 100 µM (1.5 h, read-out: cm.bpm.90min): 0% | activity at 100 µM [3]: 0% | activity at 100 µM [4]: 0% | activity at 0.01 µM [5]: 112% | activity at 0.01 µM [6]: 138% | activity at 0.01 µM (24 h, read-out: cm.bpm.24hrs): 118% | activity at 0.01 µM [7]: 82.1% | activity at 0.01 µM [8]: 120% | activity at 0.1 µM [5]: 115% | activity at 0.1 µM [6]: 126% | activity at 0.1 µM (24 h, read-out: cm.bpm.24hrs): 116% | activity at 0.1 µM [7]: 92.5% | activity at 0.1 µM [8]: 111% | activity at 1 µM [5]: 124% | activity at 1 µM [6]: 94.2% | activity at 1 µM (24 h, read-out: cm.bpm.24hrs): 95.5% | activity at 1 µM [7]: 112% | activity at 1 µM [8]: 106% | activity at 10 µM [5]: 104% | activity at 10 µM [6]: 140% | activity at 10 µM (24 h, read-out: cm.bpm.24hrs): 121% | activity at 10 µM [7]: 82.7% | activity at 10 µM [8]: 111% | activity at 100 µM [5]: 0% | activity at 100 µM [6]: 0% | activity at 100 µM (24 h, read-out: cm.bpm.24hrs): 0% | activity at 100 µM [7]: 0% | activity at 100 µM [8]: 0%
